In patent US11001745B2, “Hydrocarbon recovery composition, method, and system” (THE SASKATCHEWAN RESEARCH COUNCIL, priority 2016, dated 2021):

Columns and labels:
[1] = Dissolution of asphaltenes; assay type: physicochemical
[2] = Thermal stability; assay type: physicochemical; settings: 200° C.
[3] = room temperature; cited from earlier work

SMILES	Asphaltenes dissolve in the compound [1]	Thermal stability [2]	Solubility in water [3]
CCCCCCCCCCCCN1CCCC1=O [NDDP, N-dodecyl-2-pyrrolidone]	dissolve	–	–
O=C1CCCN1C1CCCCC1 [NCHP, N-cyclohexyl-2-pyrrolidone]	dissolve	–	–
CCCCCCCCN1CCCC1=O [NOP, N-octyl-2-pyrrolidone]	dissolve	stable for at least one week	about 1 g/L
